According to patent US10973810B2, “Methods for the treatment of neurological disorders” (Yumanity Therapeutics, Inc., priority 2017, dated 2021):

Experiments:
SCD = experiment: Fatty acid saturation in guinea pig brain after oral administration of SCD inhibitors (GC-FID of FAME); format: in vivo; details: 25 mg/kg orally twice daily for 5 days; brain 4 h after last dose; vs vehicle
Method: FIG. 18A-18F are a series of graphs showing an evaluation of fatty acid saturation in guinea pig brain after oral administration of SCD inhibitors. Guinea pigs were dosed orally with SCD inhibitors twice daily (every 12 hours) for 5 days. Guinea pigs were dosed with vehicle, SCD5 Selective Inhibitor 1 (“SCD5-SI-1”), SCD5 Selective Inhibitor 2 (“SCD5-SI-2”), CAY10566 (“CAY”) or SCD1/SCD5 Inhibitor 1 (“SCD1/5-1”), all compounds at 25 mg/kg with a volume-matched vehicle control. Four hours after the last dose on day 5, guinea pigs were sacrificed, and brains were removed after whole-body saline perfusion. […] Samples were evaluated on a gas chromatograph with a flame ionization detector (GC-FID) to quantify a comprehensive panel of fatty acid species. Brain samples were evaluated for levels of 16 (FIG. 18A) and 18 (FIG. 18B) carbon-containing fatty acids (C16, C18 respectively), and the desaturation index (DI) was calculated by taking the ratio of desaturated to saturated fatty acid for each species. […] Brain samples were evaluated for the relative levels of the positional isomers of C16, including C16:1 n7 palmitoleic acid (FIG. 18C) or C16:1 n9 monounsaturated fatty acids (FIG. 18D). […] Data was analyzed by one-way ANOVA with Tukey's post-hoc test to account for multiple comparisons. **p<0.01, ***p<0.005, ****p<0.0001. […]

human SCD1 = biological target: T1, human SCD1 (Homo sapiens, UniProt O00767); experiment: Growth of humanized yeast surviving solely on human SCD1; format: cell-based; details: growth inhibition
T1 construct: host or cells: S. cerevisiae ole1Δ strain (W303 pdr1Δ pdr3Δ background), plasmid pRS316 with TDH3 promoter and CYC1 terminator
T1 sequence (O00767 1-359): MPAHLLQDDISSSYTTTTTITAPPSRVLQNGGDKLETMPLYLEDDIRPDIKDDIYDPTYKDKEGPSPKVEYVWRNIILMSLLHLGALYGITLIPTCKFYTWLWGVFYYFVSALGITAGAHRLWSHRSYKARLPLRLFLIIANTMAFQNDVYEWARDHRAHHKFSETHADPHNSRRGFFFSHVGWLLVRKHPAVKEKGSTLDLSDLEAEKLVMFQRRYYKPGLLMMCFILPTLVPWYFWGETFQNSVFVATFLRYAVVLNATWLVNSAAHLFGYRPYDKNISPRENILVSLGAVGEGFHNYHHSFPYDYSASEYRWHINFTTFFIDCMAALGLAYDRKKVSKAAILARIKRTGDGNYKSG
From the text: The coding sequence of yeast OLE1 was also cloned into this plasmid). These clones were then transformed into the ole1d strain and plated on CSM-Ura media (CSM lacking uracil) with 2% glucose (w/v) and independent colonies were isolated and amplified.
For experiments using a plasmid-borne copy of Ole1, SCD1, or SCD5 (FIGS. 3B, 6, and 7), media lacking uracil (SX-Ura, where X is glucose, raffinose, or galactose), was used for all steps of the compound profiling protocol to ensure its maintenance throughout the assay.
After yeast delivery, assay plates were incubated under humidified conditions at 30° C. for 24 to 40 h. ApoE4 rescue experiments were stopped at 24 h, aSyn experiments at 40 h, Ole1 at 24 h, and SCD1/SCD5 at 40 h. The growth of yeast was monitored by reading the OD600 of each well using a microplate reader (Perkin Elmer EnVision™).

## Cc1nnc(-c2ccc(N3CCC(Oc4cc(F)ccc4Cl)CC3)nn2)o1 [CAY10566]
SCD
  C16 desaturation index (DI) in brain: decreased
Human SCD1
  half-maximal inhibitory concentration (IC50), SCD1 humanized strain: low nanomolar
